Measured values from US20230321067A1, “DOSING REGIMEN COMPRISING 3-(1-OXOISOINDOLIN-2-YL)PIPERIDINE-2,6-DIONE DERIVATIVES” (Novartis AG, priority 2020, published 2023).
Like-named read-outs stand apart in the source and are kept apart here.

Experiments:
IL2 mRNA = assay: Upregulation of IL2 mRNA in TCR-stimulated Jurkat cells (FIG. 2B); format: cell-based; conditions: increasing concentrations
Method: FIG. 2B is a graph showing the change upregulation of IL2 mRNA in TCR-stimulated Jurkat cells after IKZF2 degradation when cells were treated with increasing concentrations of Compound I-57.

CYP2C19 = CYP2C19 (Homo sapiens, UniProt P33261); assay: Time-dependent CYP inhibition: CYP2C19; format: in vitro ADME; conditions: I-57 concentrations of up to 100 μM
IKZF2 [1] = assay: IKZF2 degradation in primary rabbit PBMCs; format: cell-based
Method: I-57 mediated degradation of IKZF2 was assessed in primary PBMCs obtained from rabbit, dog, pig, cynomolgus monkey, and human, and in primary splenocytes of mouse and rat. […] Species-specificity due to species specific alteration CRBN primary structure have previously been described with other compounds known to interact with the CRBN ubiquitin ligase complex to elicit protein specific degradation (Krönke et al, 2015).

primary human Tregs = assay: Suppression of Teff proliferation by in vitro expanded primary human Tregs; format: cell-based
[2] = test system: IFNγ production in Teff cells; assay: IFNγ production in Teff cells (FIG. 2D); format: cell-based; conditions: 2.5 nM, 25 nM and 2.5 μM vs DMSO
FIZ1 = target: T1, FIZ1 (Homo sapiens, UniProt Q96SL8); assay: Whole cell proteomic analysis in 293T cells and subsequent analyses: FIZ1; format: cell-based
T1 construct: endogenous in cells; host or cells: 293T
Method: Other potential degradation targets of I-57 were evaluated in 293T cells using whole cell proteomic analysis. […] Subsequent analyses have confirmed that FIZ1 is degraded by about 50% at a 10 μM concentration of I-57 ([I-57 Investigator's Brochure]). […] FIZ1 is expressed in the neural retina where it transcriptionally represses the differentiation of photoreceptors. FIZ1 is also expressed in non-ocular tissues with unknown function.

[3] = ECG (QTc) in monkeys, single dose and 4-week GLP repeat dose study; format: in vivo, monkey
Method: The risk of possible QTc interval prolongation at the starting dose is therefore considered low. QT prolongation may become clinically significant during escalation but are not anticipated to be dose limiting until doses at or above 640 mg. Monitoring and other measures to mitigate potential risk of arrhythmia is addressed in Example 3 below.

[4] = Single oral dose PK in cynomolgus monkey; format: in vivo; conditions: for Cmax / AUC(0-t): plasma; for Cmax / AUC(0-t) / AUC24 h/Dose / Cmax/Dose: unbound, n = 3, mean ± SD; for AUC(0-t): read-out: AUC24 h
Method: (§1) The PK/PD relationship of I-57 was examined in cynomolgus monkeys after a single oral dose of 0.01, 0.1 or 1 mg/kg. I-57 plasma concentration and IKZF2 expression (as determined by flow cytometry) in FOXP3+ T cells from PBMCs were determined (FIG. 4 and FIG. 5).

CYP2E1 = CYP2E1 (Homo sapiens, UniProt P05181); assay: CYP inhibition: CYP2E1; format: in vitro ADME; conditions: I-57 concentrations of up to 100 μM
[5] = In vivo non-clinical PK, mouse
Method: The in vivo non-clinical PK profile of I-57 was investigated in mouse, rat, dog and cynomolgus monkey using I-57 free base. […] After p.o. administration, the absorption of I-57 was rapid with peak blood concentration (Tmax) occurring between 1 and 4 hours. […] In high dose PK and toxicology studies with I-57 the exposures in mouse, rat and monkey increased with dose.
The binding to plasma protein of I-57 in vitro was moderate in all species, with an observed difference between rodents (73% in mouse, 76% in rat) and non-rodents (52% in dog and monkey, 54% in human). Blood-to-plasma ratios were in the range of 0.7-1.8 (human 1.1-1.3). […] Based on results with non-radiolabeled I-57 in the dog, a significant amount of unchanged I-57 was renally eliminated (˜20% of dose).

IKZF2 [6] = assay: Single oral dose PD in cynomolgus monkey: IKZF2 expression in T cells from PBMCs by flow cytometry; format: in vivo
Method: as §1
Decreased (percentage change) IKZF2 positive […] cells, as determined by flow cytometry, were detectable at 4h post dose in the 1 mg/kg and 0.1 mg/kg groups, reaching maximum at 12-24 hrs post-dose and maintaining this maximum for 12-24 hrs.

IKZF2 [7] = assay: Repeated daily oral dose PD in cynomolgus monkey: IKZF2 in FOXP3+ T cells by flow cytometry; format: in vivo
Method: The PK/PD relationship of I-57 was further examined in cynomolgus monkeys after repeated daily oral doses of 0.1 and 3 mg/kg. In this study, a cohort of animals were initially immunized with an antigen-adjuvant mixture (KLH/Squalene). The experiment was designed to assess the effect of I-57 exposure, and the resulting IKZF2 degradation, on immune response during immunization to test the hypothesis that IKZF2 degradation would result in increased proliferation of stimulated T-cells. In the experiment, daily I-57 oral treatment was initiated 5 days after immunization. An immunization booster dose was administered on day 15. I-57 plasma concentration and IKZF2 expression (as determined by flow cytometry) in FOXP3+ T cells from PBMCs were determined (FIG. 9A and FIG. 9B).
Consistent with previous findings, IKZF2 degradation was detected 24 h after the first dose (at day 6) (FIG. 9A and FIG. 9B). The levels of IKZF2 decreased further upon repeat dosing and reached a steady-state level approximately 72 h after initiation of treatment. This level of degradation was maintained throughout the remainder of the treatment (24 days).

T1 sequence (Q96SL8 whole entry): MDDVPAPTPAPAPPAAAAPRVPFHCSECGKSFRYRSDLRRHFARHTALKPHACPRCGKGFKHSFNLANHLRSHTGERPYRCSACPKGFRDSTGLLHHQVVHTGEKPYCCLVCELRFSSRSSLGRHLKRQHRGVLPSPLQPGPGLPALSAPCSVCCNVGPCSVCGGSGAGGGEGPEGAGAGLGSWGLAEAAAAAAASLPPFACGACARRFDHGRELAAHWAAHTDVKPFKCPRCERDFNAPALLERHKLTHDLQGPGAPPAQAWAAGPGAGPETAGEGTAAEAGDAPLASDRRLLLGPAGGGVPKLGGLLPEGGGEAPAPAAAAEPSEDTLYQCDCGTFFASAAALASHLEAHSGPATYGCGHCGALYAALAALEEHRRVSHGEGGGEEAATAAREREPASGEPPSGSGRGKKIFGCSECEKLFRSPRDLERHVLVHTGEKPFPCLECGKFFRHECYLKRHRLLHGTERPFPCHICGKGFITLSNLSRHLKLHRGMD
Sequence of CYP2E1 (P05181 whole entry): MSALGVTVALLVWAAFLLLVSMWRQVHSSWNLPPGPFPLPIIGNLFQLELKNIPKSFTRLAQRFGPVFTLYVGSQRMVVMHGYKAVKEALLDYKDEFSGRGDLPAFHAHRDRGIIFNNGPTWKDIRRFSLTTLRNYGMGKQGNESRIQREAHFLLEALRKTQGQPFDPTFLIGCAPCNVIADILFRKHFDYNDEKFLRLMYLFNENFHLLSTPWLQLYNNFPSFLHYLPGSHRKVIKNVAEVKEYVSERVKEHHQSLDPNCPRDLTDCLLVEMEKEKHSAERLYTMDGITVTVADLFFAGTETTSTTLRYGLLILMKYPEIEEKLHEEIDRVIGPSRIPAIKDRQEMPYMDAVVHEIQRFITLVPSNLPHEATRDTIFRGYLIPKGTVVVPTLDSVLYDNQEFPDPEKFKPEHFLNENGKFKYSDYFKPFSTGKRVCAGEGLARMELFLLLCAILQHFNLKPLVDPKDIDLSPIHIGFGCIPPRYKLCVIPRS
Sequence of CYP2C19 (P33261 whole entry): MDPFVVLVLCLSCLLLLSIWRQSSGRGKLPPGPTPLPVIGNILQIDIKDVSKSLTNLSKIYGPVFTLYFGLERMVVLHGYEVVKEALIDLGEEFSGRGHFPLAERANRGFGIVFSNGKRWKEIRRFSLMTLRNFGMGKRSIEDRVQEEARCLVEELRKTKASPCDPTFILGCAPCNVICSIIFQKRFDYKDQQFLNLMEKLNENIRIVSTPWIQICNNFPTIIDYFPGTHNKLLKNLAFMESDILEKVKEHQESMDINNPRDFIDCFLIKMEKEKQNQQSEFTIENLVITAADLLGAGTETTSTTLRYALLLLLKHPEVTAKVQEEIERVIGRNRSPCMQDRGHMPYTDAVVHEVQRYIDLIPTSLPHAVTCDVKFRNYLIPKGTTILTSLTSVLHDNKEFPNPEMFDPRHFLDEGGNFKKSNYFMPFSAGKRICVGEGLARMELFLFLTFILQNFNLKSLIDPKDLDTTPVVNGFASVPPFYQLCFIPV

Structure (SMILES): O=C1CCC(N2Cc3cc(C4CCN(Cc5ccccc5)CC4)ccc3C2=O)C(=O)N1 (stereo not shown) [Compound I-57, 3-(5-(1-benzylpiperidin-4-yl)-1-oxoisoindolin-2-yl)piperidine-2,6-dione]
- IL-2 mRNA expression (IL2 mRNA): expressed more IL-2 mRNA in a dose-dependent manner
- time-dependent inhibition of CYP2C19 (CYP2C19): no apparent time-dependent inhibition
- degradation of IKZF2 (IKZF2 [1]): Degradation was observed
- IKZF2 protein level in Treg cells (primary human Tregs; primary human Tregs expanded in vitro): reduced proportionally to the I-57 dose
- capacity of Tregs to suppress Teff proliferation (primary human Tregs; primary human Tregs expanded in vitro in the presence of I-57): reduced capacity to suppress Teff proliferation
- IFNγ production by IKZF2+ cells [2]: concomitant increase in IFNγ production
- degradation of FIZ1 (FIZ1; 10 μM I-57, subsequent analyses): about 50%
- degradation of FIZ1 (FIZ1; 293T cells, whole cell proteomic analysis): degraded
- cardiac electrical instability or wave abnormality [3]: No cardiac electrical instability or wave abnormality was observed
- QT effects ([3]; 3 mg/kg): no QT effects were noted
- free Cmax in monkeys at 3 mg/kg relative to free Cmax predicted at the clinical starting dose of 20 mg ([3]; 3 mg/kg): ~8.4 times
- time of highest magnitude of the QTc effect ([3]; coinciding with Tmax): 0.5 to 5.5 h
- increase in QTc interval ([3]; doses >10 mg/kg, single dose and 4-week GLP repeat dose study): at least 30 mSec
- Cmax ([4]; single oral dose 0.01 mg/kg): 2.11 ± 0.69 ng/mL
- AUC(0-t) ([4]; single oral dose 0.01 mg/kg): 14.1 ± 4.72 ng·h/mL
- Cmax ([4]; single oral dose 0.1 mg/kg): 13.4 ± 2.77 ng/mL
- AUC(0-t) ([4]; single oral dose 0.1 mg/kg): 102 ± 13.2 ng·h/mL
- Cmax ([4]; single oral dose 1 mg/kg): 102 ± 45.3 ng/mL
- AUC(0-t) ([4]; single oral dose 1 mg/kg): 610 ± 236 ng·h/mL
- dose proportionality of exposure ([4]; single oral dose 0.01, 0.1 or 1 mg/kg): slightly less than dose proportional
- AUC24 h/Dose ([4]; single oral dose 0.01 mg/kg): 1410 ± 472 (ng · h/mL)/(mg/kg)
- Cmax/Dose ([4]; single oral dose 0.01 mg/kg): 211 ± 69.1 (ng/mL)/(mg/kg)
- AUC24 h/Dose ([4]; single oral dose 0.1 mg/kg): 1020 ± 136 (ng · h/mL)/(mg/kg)
- Cmax/Dose ([4]; single oral dose 0.1 mg/kg): 134 ± 27.7 (ng/mL)/(mg/kg)
- AUC24 h/Dose ([4]; single oral dose 1 mg/kg): 610 ± 236 (ng · h/mL)/(mg/kg)
- Cmax/Dose ([4]; single oral dose 1 mg/kg): 102 ± 45.3 (ng/mL)/(mg/kg)
- inhibition of CYP2E1 (CYP2E1): very little and no inhibition
- dose proportionality of AUC ([5]; between 3 mg/kg and 100 mg/kg): roughly dose proportional
- bioavailability ([5]; blood, po): 53%
- Kp ([5]; brain, read-out: brain/plasma ratio): 0.07
- duration for which maximum decrease of IKZF2 positive cells was maintained (IKZF2 [6]; single oral dose): 12 to 24 h
- recovery of IKZF2 positive cells (IKZF2 [6]; single oral dose 1 mg/kg): total recovery was not achieved by day 7 post-dose
- time at which decreased IKZF2 positive cells were detectable (IKZF2 [6]; single oral dose, 1 mg/kg and 0.1 mg/kg groups, flow cytometry): 4 h
- time to maximum decrease of IKZF2 positive cells (IKZF2 [6]; single oral dose, post-dose): 12 to 24 h
- IKZF2 degradation (IKZF2 [7]; 0.1 mg/kg dose level, repeated daily): profound
- time after initiation of treatment to steady-state level of IKZF2 (IKZF2 [7]; repeated daily oral doses): approximately 72 h
- time after the first dose at which IKZF2 degradation was detected (IKZF2 [7]; repeated daily oral doses of 0.1 and 3 mg/kg): 24 h
